Values quoted from earlier work as cited in patent US20130079416A1 (BOIRON, priority 2010, published 2013).
Like-named read-outs stand apart in the source and are kept apart here.

What was measured:
[1] = rat, oral, multiple doses; methemoglobinemia-carboxyhaemoglobin, changes in blood cell and erythrocyte count
[2] = rats, long time and very high doses, alone or in combination with phenazone (Johansson, 1981)
[3] = human

CCOc1ccc(NC(C)=O)cc1 [phenacetin, N-(4-ethoxyphenyl)acetamide]
Lowest toxic dose (TDL0) [1]: 10 mg/kg/ mg/kg/4 weeks (intermittent) | Incidence of renal tumours [2]: slightly increases the incidence of renal tumours | Lowest toxic dose (TDL0) ([3]; acute, route not indicated): 74 mg/kg | Lowest toxic dose (TDL0) ([3]; oral, multiple doses, tumorigenic-carcinogenic according to RTECS criteria, renal tumours): 80 mg/kg/63 mg/kg/63 years (intermittent)
